Measured values published in PubChem BioAssay (NCI).
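Dose response: 5 concentrations. Exposure: 48 h. Format: 96-well plates. Endpoint: linear interpolation; highest concentration if not reached. Here, GI50 denotes the concentration required for 50% inhibition of growth. TGI marks complete inhibition of growth.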

How the values were obtained:
Test in all cases: DTP human tumour cell line panel, 48 h
RPMI-8226 leukemia = test system: RPMI-8226 leukemia
SK-MEL-2 melanoma = test system: SK-MEL-2 melanoma
NCI-H460 lung = test system: NCI-H460 lung
786-0 renal = test system: 786-0 renal
LOX IMVI melanoma = test system: LOX IMVI melanoma
HT29 colon = test system: HT29 colon
HOP-92 NSCLC = test system: HOP-92 NSCLC
A498 renal = test system: A498 renal
HL-60(TB) leukemia = test system: HL-60(TB) leukemia
NCI/ADR-RES ovarian = test system: NCI/ADR-RES ovarian
PC-3 prostate = test system: PC-3 prostate
HCC-2998 colon = test system: HCC-2998 colon
HOP-62 NSCLC = test system: HOP-62 NSCLC
SF-539 CNS = test system: SF-539 CNS
T-47D breast = test system: T-47D breast
DU-145 prostate = test system: DU-145 prostate
K-562 leukemia = test system: K-562 leukemia
A549 NSCLC = test system: A549 NSCLC
TK-10 renal = test system: TK-10 renal
EKVX NSCLC = test system: EKVX NSCLC
MDA-MB-435 = test system: MDA-MB-435
SK-MEL-28 melanoma = test system: SK-MEL-28 melanoma
MALME-3M melanoma = test system: MALME-3M melanoma
MOLT-4 leukemia = test system: MOLT-4 leukemia
SNB-19 CNS = test system: SNB-19 CNS
COLO 205 colon = test system: COLO 205 colon
NCI-H226 lung = test system: NCI-H226 lung
BT-549 breast = test system: BT-549 breast
CAKI-1 renal = test system: CAKI-1 renal
HS 578T breast = test system: HS 578T breast
NCI-H522 lung = test system: NCI-H522 lung
SK-OV-3 ovarian = test system: SK-OV-3 ovarian
OVCAR-8 ovarian = test system: OVCAR-8 ovarian
U251 CNS = test system: U251 CNS
ACHN renal = test system: ACHN renal
RXF 393 renal = test system: RXF 393 renal
HCT-116 colon = test system: HCT-116 colon
SNB-75 CNS = test system: SNB-75 CNS
MDA-MB-231 breast = test system: MDA-MB-231 breast
CCRF-CEM leukemia = test system: CCRF-CEM leukemia
SN12C renal = test system: SN12C renal
OVCAR-5 ovarian = test system: OVCAR-5 ovarian
OVCAR-3 ovarian = test system: OVCAR-3 ovarian
NCI-H23 lung = test system: NCI-H23 lung
SK-MEL-5 melanoma = test system: SK-MEL-5 melanoma
M14 melanoma = test system: M14 melanoma
MCF7 breast = test system: MCF7 breast
UACC-62 melanoma = test system: UACC-62 melanoma
SW-620 colon = test system: SW-620 colon
HCT-15 colon = test system: HCT-15 colon
SR leukemia = test system: SR leukemia
OVCAR-4 ovarian = test system: OVCAR-4 ovarian
KM12 colon = test system: KM12 colon
IGROV1 ovarian = test system: IGROV1 ovarian
SF-268 CNS = test system: SF-268 CNS

**Q.** Which GI50 (RPMI-8226 leukemia) does the source give for COc1ccc(-c2nn(-c3cccc(Cl)c3)cc2-c2cc(-c3ccccc3)[nH]c(=O)c2C#N)cc1 here?
**A.** 45.6 µM

**Q.** And the TGI (RPMI-8226 leukemia)?
**A.** > 50 µM

**Q.** And the GI50 (SK-MEL-2 melanoma)?
**A.** 2.13 µM

**Q.** And the TGI (SK-MEL-2 melanoma)?
**A.** 9.35 µM

**Q.** And the GI50 (NCI-H460 lung)?
**A.** 2.35 µM

**Q.** And the TGI (NCI-H460 lung)?
**A.** > 50 µM

**Q.** What about the GI50 (786-0 renal) of the same compound?
**A.** 1.6 µM

**Q.** What about the TGI (786-0 renal) of the same compound?
**A.** 7.25 µM

**Q.** What about the GI50 (LOX IMVI melanoma) of the same compound?
**A.** 8.97 µM

**Q.** What about the TGI (LOX IMVI melanoma) of the same compound?
**A.** > 50 µM

**Q.** What about the GI50 (HT29 colon) of the same compound?
**A.** 19.5 µM

**Q.** What about the TGI (HT29 colon) of the same compound?
**A.** > 50 µM

**Q.** What about the GI50 (HOP-92 NSCLC) of the same compound?
**A.** 0.654 µM

**Q.** And the TGI (HOP-92 NSCLC)?
**A.** 2.14 µM

**Q.** And the GI50 (A498 renal)?
**A.** 0.171 µM

**Q.** And the TGI (A498 renal)?
**A.** 1.6 µM

**Q.** And the GI50 (HL-60(TB) leukemia)?
**A.** 21.9 µM

**Q.** What about the TGI (HL-60(TB) leukemia) of the same compound?
**A.** > 50 µM

**Q.** What about the GI50 (NCI/ADR-RES ovarian) of the same compound?
**A.** 2.14 µM

**Q.** And the TGI (NCI/ADR-RES ovarian)?
**A.** 36 µM

**Q.** And the GI50 (PC-3 prostate)?
**A.** 6.01 µM

**Q.** And the TGI (PC-3 prostate)?
**A.** 41.6 µM

**Q.** What about the GI50 (HCC-2998 colon) of the same compound?
**A.** 15.9 µM

**Q.** What about the TGI (HCC-2998 colon) of the same compound?
**A.** > 50 µM

**Q.** What about the GI50 (HOP-62 NSCLC) of the same compound?
**A.** 1.17 µM

**Q.** What about the TGI (HOP-62 NSCLC) of the same compound?
**A.** 2.87 µM

**Q.** And the GI50 (SF-539 CNS)?
**A.** 1.01 µM

**Q.** And the TGI (SF-539 CNS)?
**A.** 2.75 µM

**Q.** What about the GI50 (T-47D breast) of the same compound?
**A.** 1.64 µM

**Q.** And the TGI (T-47D breast)?
**A.** 7.43 µM

**Q.** And the GI50 (DU-145 prostate)?
**A.** 10.3 µM

**Q.** What about the TGI (DU-145 prostate) of the same compound?
**A.** > 50 µM

**Q.** And the GI50 (K-562 leukemia)?
**A.** 9.22 µM

**Q.** What about the TGI (K-562 leukemia) of the same compound?
**A.** > 50 µM

**Q.** What about the GI50 (A549 NSCLC) of the same compound?
**A.** 2.26 µM

**Q.** What about the TGI (A549 NSCLC) of the same compound?
**A.** > 50 µM

**Q.** And the GI50 (TK-10 renal)?
**A.** 1.47 µM

**Q.** What about the TGI (TK-10 renal) of the same compound?
**A.** 4.6 µM

**Q.** And the GI50 (EKVX NSCLC)?
**A.** 1.37 µM

**Q.** And the TGI (EKVX NSCLC)?
**A.** > 50 µM

**Q.** What about the GI50 (MDA-MB-435) of the same compound?
**A.** > 50 µM

**Q.** What about the TGI (MDA-MB-435) of the same compound?
**A.** > 50 µM

**Q.** What about the GI50 (SK-MEL-28 melanoma) of the same compound?
**A.** 2.93 µM

**Q.** And the TGI (SK-MEL-28 melanoma)?
**A.** > 50 µM

**Q.** And the GI50 (MALME-3M melanoma)?
**A.** 13.7 µM

**Q.** What about the TGI (MALME-3M melanoma) of the same compound?
**A.** > 50 µM

**Q.** And the GI50 (MOLT-4 leukemia)?
**A.** 42.3 µM

**Q.** And the TGI (MOLT-4 leukemia)?
**A.** > 50 µM

**Q.** What about the GI50 (SNB-19 CNS) of the same compound?
**A.** 2.76 µM

**Q.** What about the TGI (SNB-19 CNS) of the same compound?
**A.** 38.6 µM

**Q.** What about the GI50 (COLO 205 colon) of the same compound?
**A.** 7.4 µM

**Q.** What about the TGI (COLO 205 colon) of the same compound?
**A.** > 50 µM

**Q.** And the GI50 (NCI-H226 lung)?
**A.** 0.969 µM

**Q.** What about the TGI (NCI-H226 lung) of the same compound?
**A.** > 50 µM

**Q.** And the GI50 (BT-549 breast)?
**A.** 1.46 µM

**Q.** And the TGI (BT-549 breast)?
**A.** 17.8 µM

**Q.** What about the GI50 (CAKI-1 renal) of the same compound?
**A.** 1.3 µM

**Q.** What about the TGI (CAKI-1 renal) of the same compound?
**A.** 6.09 µM

**Q.** And the GI50 (HS 578T breast)?
**A.** 1.41 µM

**Q.** What about the TGI (HS 578T breast) of the same compound?
**A.** > 50 µM

**Q.** And the GI50 (NCI-H522 lung)?
**A.** 3.59 µM

**Q.** What about the TGI (NCI-H522 lung) of the same compound?
**A.** 20.8 µM

**Q.** What about the GI50 (SK-OV-3 ovarian) of the same compound?
**A.** 0.922 µM

**Q.** What about the TGI (SK-OV-3 ovarian) of the same compound?
**A.** 2.29 µM

**Q.** What about the GI50 (OVCAR-8 ovarian) of the same compound?
**A.** 1.67 µM

**Q.** And the TGI (OVCAR-8 ovarian)?
**A.** > 50 µM

**Q.** And the GI50 (U251 CNS)?
**A.** 1.48 µM

**Q.** What about the TGI (U251 CNS) of the same compound?
**A.** 6.76 µM

**Q.** What about the GI50 (ACHN renal) of the same compound?
**A.** 1.83 µM

**Q.** And the TGI (ACHN renal)?
**A.** 10.7 µM

**Q.** And the GI50 (RXF 393 renal)?
**A.** 0.897 µM

**Q.** What about the TGI (RXF 393 renal) of the same compound?
**A.** 2.18 µM

**Q.** What about the GI50 (HCT-116 colon) of the same compound?
**A.** 1.71 µM

**Q.** What about the TGI (HCT-116 colon) of the same compound?
**A.** 32.8 µM

**Q.** And the GI50 (SNB-75 CNS)?
**A.** 1.17 µM

**Q.** What about the TGI (SNB-75 CNS) of the same compound?
**A.** 3.61 µM

**Q.** What about the GI50 (MDA-MB-231 breast) of the same compound?
**A.** 1.24 µM

**Q.** And the TGI (MDA-MB-231 breast)?
**A.** 10.4 µM

**Q.** And the GI50 (CCRF-CEM leukemia)?
**A.** 8.38 µM

**Q.** What about the TGI (CCRF-CEM leukemia) of the same compound?
**A.** 19.3 µM

**Q.** And the GI50 (SN12C renal)?
**A.** 7.94 µM

**Q.** And the TGI (SN12C renal)?
**A.** > 50 µM

**Q.** And the GI50 (OVCAR-5 ovarian)?
**A.** 32.3 µM

**Q.** And the TGI (OVCAR-5 ovarian)?
**A.** > 50 µM

**Q.** And the GI50 (OVCAR-3 ovarian)?
**A.** 2.84 µM

**Q.** And the TGI (OVCAR-3 ovarian)?
**A.** 16.8 µM

**Q.** What about the GI50 (NCI-H23 lung) of the same compound?
**A.** 2.46 µM

**Q.** What about the TGI (NCI-H23 lung) of the same compound?
**A.** 13.6 µM

**Q.** What about the GI50 (SK-MEL-5 melanoma) of the same compound?
**A.** 5.76 µM

**Q.** What about the TGI (SK-MEL-5 melanoma) of the same compound?
**A.** > 50 µM

**Q.** What about the GI50 (M14 melanoma) of the same compound?
**A.** 2.27 µM

**Q.** And the TGI (M14 melanoma)?
**A.** 34.6 µM

**Q.** What about the GI50 (MCF7 breast) of the same compound?
**A.** 9.02 µM

**Q.** And the TGI (MCF7 breast)?
**A.** > 50 µM

**Q.** What about the GI50 (UACC-62 melanoma) of the same compound?
**A.** 2.26 µM

**Q.** And the TGI (UACC-62 melanoma)?
**A.** 11.1 µM

**Q.** And the GI50 (SW-620 colon)?
**A.** 9.23 µM

**Q.** And the TGI (SW-620 colon)?
**A.** > 50 µM

**Q.** And the GI50 (HCT-15 colon)?
**A.** 27 µM

**Q.** What about the TGI (HCT-15 colon) of the same compound?
**A.** > 50 µM

**Q.** And the GI50 (SR leukemia)?
**A.** 7.74 µM

**Q.** What about the TGI (SR leukemia) of the same compound?
**A.** 15.8 µM

**Q.** What about the GI50 (OVCAR-4 ovarian) of the same compound?
**A.** 1.25 µM

**Q.** And the TGI (OVCAR-4 ovarian)?
**A.** 5.34 µM

**Q.** And the GI50 (KM12 colon)?
**A.** > 50 µM

**Q.** What about the TGI (KM12 colon) of the same compound?
**A.** > 50 µM

**Q.** What about the GI50 (IGROV1 ovarian) of the same compound?
**A.** 1.89 µM

**Q.** And the TGI (IGROV1 ovarian)?
**A.** 7.71 µM

**Q.** And the GI50 (SF-268 CNS)?
**A.** 2.59 µM

**Q.** What about the TGI (SF-268 CNS) of the same compound?
**A.** > 50 µM
